Measurements reported in PMC9090415, “Discovery of small molecule inhibitors of Plasmodium falciparum apicoplast DNA polymerase” (Journal of Enzyme Inhibition and Medicinal Chemistry, 2022).

Molecular target: T1, bacteriophage T4 DNA polymerase (Enterobacteria phage T4, UniProt P04415)
T1 construct: made in house
T1 sequence (P04415 1-898): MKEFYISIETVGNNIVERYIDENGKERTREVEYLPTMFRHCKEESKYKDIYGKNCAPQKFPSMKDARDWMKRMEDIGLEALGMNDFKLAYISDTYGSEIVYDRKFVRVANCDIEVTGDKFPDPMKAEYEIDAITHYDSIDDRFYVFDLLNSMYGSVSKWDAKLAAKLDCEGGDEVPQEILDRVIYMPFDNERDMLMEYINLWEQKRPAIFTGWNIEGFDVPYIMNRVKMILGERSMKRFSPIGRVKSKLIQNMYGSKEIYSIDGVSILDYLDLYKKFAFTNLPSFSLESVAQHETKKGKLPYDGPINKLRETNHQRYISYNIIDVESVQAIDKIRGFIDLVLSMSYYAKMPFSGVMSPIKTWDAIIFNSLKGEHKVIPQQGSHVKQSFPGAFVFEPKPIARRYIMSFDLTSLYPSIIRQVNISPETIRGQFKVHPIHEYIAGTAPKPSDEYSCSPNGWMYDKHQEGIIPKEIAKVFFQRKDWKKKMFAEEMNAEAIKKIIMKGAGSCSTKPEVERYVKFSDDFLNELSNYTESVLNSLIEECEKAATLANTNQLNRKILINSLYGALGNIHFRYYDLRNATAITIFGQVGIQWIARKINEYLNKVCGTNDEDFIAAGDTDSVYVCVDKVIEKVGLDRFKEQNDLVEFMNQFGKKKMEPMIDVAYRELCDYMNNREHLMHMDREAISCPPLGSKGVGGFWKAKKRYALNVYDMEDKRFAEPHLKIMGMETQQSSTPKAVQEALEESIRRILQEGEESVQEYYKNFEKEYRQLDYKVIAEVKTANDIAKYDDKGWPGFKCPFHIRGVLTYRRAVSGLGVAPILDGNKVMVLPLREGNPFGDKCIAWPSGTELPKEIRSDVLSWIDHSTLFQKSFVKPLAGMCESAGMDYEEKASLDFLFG
Assay: Counter-screen against bacteriophage T4 DNA polymerase
Format: biochemical
Conditions: for % inhibition T4 10' 2.5 / % inhibition T4 10' 5 / % inhibition T4 10' 10 / % inhibition T4 10' 20 / % inhibition T4 10' 40 / % inhibition T4 10' 80: read at 10'; for % inhibition T4 70' 2.5 / % inhibition T4 70' 5 / % inhibition T4 70' 10 / % inhibition T4 70' 20 / % inhibition T4 70' 40 / % inhibition T4 70' 80: read at 70'; for % inhibition T4 130' 2.5 / % inhibition T4 130' 5 / % inhibition T4 130' 10 / % inhibition T4 130' 20 / % inhibition T4 130' 40 / % inhibition T4 130' 80: read at 130'; for % inhibition T4 40' 2.5 / % inhibition T4 40' 5 / % inhibition T4 40' 10 / % inhibition T4 40' 20 / % inhibition T4 40' 40 / % inhibition T4 40' 80: read at 40'; for % inhibition T4 90' 2.5 / % inhibition T4 90' 5 / % inhibition T4 90' 10 / % inhibition T4 90' 20 / % inhibition T4 90' 40 / % inhibition T4 90' 80: read at 90'; for % inhibition T4 180' 2.5 / % inhibition T4 180' 5 / % inhibition T4 180' 10 / % inhibition T4 180' 20 / % inhibition T4 180' 40 / % inhibition T4 180' 80: read at 180'
Method: Codon-optimized, exonuclease-deficient Pf-apPOL was overexpressed in E. coli BL21 (DE3) and purified as described. The protein was dialysed against two, 1-liter changes of 20 mM Tris-HCl (pH 8.0), 400 mM NaCl, and 20% glycerol. Plasmodium bergei and Babesia bovis apPOLs (Pb-apPOL and Bb-apPOL, respectively) were codon-optimized, expressed, and purified as for Pf-apPOL[15]. Bacteriophage T4 DNA polymerase was purified as described. The DNA oligonucleotides used to make the high-throughput substrate were obtained from Integrated DNA Technologies. Deoxynucleotides were purchased from Strategene. All other materials came from Fisher Scientific.
Each compound was tested in a dose-response format to determine IC50 values. […] T4 DNA polymerase can be produced in large quantities, and is in the same family (B-family) as the replicative human DNA polymerases (α, δ, and ε)[20].

## CCCc1ccc(Oc2coc3cc(OC)ccc3c2=O)cc1 [KU0193249]
DRC-1, concentration 2.5
  % inhibition T4 10' 2.5: 1.7455%
  % inhibition T4 70' 2.5: 0.7287%
  % inhibition T4 130' 2.5: -0.4639%
DRC-1, concentration 5
  % inhibition T4 10' 5: -0.5189%
  % inhibition T4 70' 5: -0.7228%
  % inhibition T4 130' 5: -1.759%
DRC-1, concentration 10
  % inhibition T4 10' 10: 7.431%
  % inhibition T4 70' 10: 6.283%
  % inhibition T4 130' 10: 5.142%
DRC-1, concentration 20
  % inhibition T4 10' 20: -2.718%
  % inhibition T4 70' 20: -2.8267%
  % inhibition T4 130' 20: -2.066%
DRC-1, concentration 40
  % inhibition T4 10' 40: 4.024%
  % inhibition T4 70' 40: 4.61%
  % inhibition T4 130' 40: 4.723%
DRC-1, concentration 80
  % inhibition T4 10' 80: -14.455%
  % inhibition T4 70' 80: -10.3998%
  % inhibition T4 130' 80: -9.229%
DRC-2, concentration 2.5
  % inhibition T4 10' 2.5: 9%
  % inhibition T4 40' 2.5: 9%
  % inhibition T4 90' 2.5: 8%
  % inhibition T4 180' 2.5: 1.43%
DRC-2, concentration 5
  % inhibition T4 10' 5: -2.34%
  % inhibition T4 40' 5: -2.34%
  % inhibition T4 90' 5: -2.2%
  % inhibition T4 180' 5: -7%
DRC-2, concentration 10
  % inhibition T4 10' 10: 0.369%
  % inhibition T4 40' 10: 0.369%
  % inhibition T4 90' 10: -0.214%
  % inhibition T4 180' 10: -5%
DRC-2, concentration 20
  % inhibition T4 10' 20: -9%
  % inhibition T4 40' 20: -9%
  % inhibition T4 90' 20: -7%
  % inhibition T4 180' 20: -10%
DRC-2, concentration 40
  % inhibition T4 10' 40: -1.47%
  % inhibition T4 40' 40: -1.47%
  % inhibition T4 90' 40: 0.714%
  % inhibition T4 180' 40: -1.19%
DRC-2, concentration 80
  % inhibition T4 10' 80: -4.57%
  % inhibition T4 40' 80: -4.57%
  % inhibition T4 90' 80: -1.8%
  % inhibition T4 180' 80: -4%

## COc1ccc(C(=O)N2CCc3c(nc4cc(-c5ccccc5Cl)[nH]n4c3=O)C2)cn1 [Molecule 26, COc1ccc(cn1)C(=O)N1CCc2c(C1)nc1n(c2=O)[nH]c(c1)c1ccccc1Cl]
DRC-2, concentration 2.5
  % inhibition T4 10': -4%
  % inhibition T4 40': -4%
DRC-2, concentration 10
  % inhibition T4 10': -17%
  % inhibition T4 180': -10%
DRC-2, concentration 40
  % inhibition T4 40': -23%
  % inhibition T4 180': -17%
DRC-2, concentration 5
  % inhibition T4 90': -10%
DRC-2, concentration 80
  % inhibition T4 90': -23%
  % inhibition T4 180': -17%

## COc1cccc(Oc2c(C(F)(F)F)oc3cc(OC(=O)N(C)C)ccc3c2=O)c1 [Molecule 52, COc1cccc(c1)Oc1c(=O)c2ccc(cc2oc1C(F)(F)F)OC(=O)N(C)C]
DRC-2, concentration 20
  % inhibition T4 10': 10%
  % inhibition T4 40': 10%
  % inhibition T4 180': 3%
DRC-2, concentration 40
  % inhibition T4 10': 17%
DRC-2, concentration 10
  % inhibition T4 40': 7%
  % inhibition T4 90': 7%
DRC-2, concentration 5
  % inhibition T4 90': 3%
DRC-2, concentration 80
  % inhibition T4 180': 17%

## COc1ccc(/C=C/c2cc(C(=O)O)c3ccccc3n2)cc1 [Molecule 5, COc1ccc(cc1)/C=C/c1nc2ccccc2c(c1)C(=O)O]
DRC-1, concentration 2.5
  % inhibition T4 10' 2.5: 1.081%
  % inhibition T4 70' 2.5: -11.7738%
  % inhibition T4 130' 2.5: -10.2066%
DRC-1, concentration 5
  % inhibition T4 10' 5: 5.185%
  % inhibition T4 70' 5: -0.8035%
  % inhibition T4 130' 5: -1.2832%
DRC-1, concentration 10
  % inhibition T4 10' 10: 0.5818%
  % inhibition T4 70' 10: 5.827%
  % inhibition T4 130' 10: 4.495%
DRC-1, concentration 20
  % inhibition T4 10' 20: -3.901%
  % inhibition T4 70' 20: 2.436%
  % inhibition T4 130' 20: 3.3008%
DRC-1, concentration 40
  % inhibition T4 10' 40: -6.063%
  % inhibition T4 70' 40: 2.364%
  % inhibition T4 130' 40: 3.939%
DRC-1, concentration 80
  % inhibition T4 10' 80: 5.54%
  % inhibition T4 70' 80: 3.646%
  % inhibition T4 130' 80: 6.199%
DRC-2, concentration 2.5
  % inhibition T4 10' 2.5: 4.49%
  % inhibition T4 40' 2.5: 4%
  % inhibition T4 90' 2.5: 3%
  % inhibition T4 180' 2.5: -3.34%
DRC-2, concentration 5
  % inhibition T4 10' 5: 7%
  % inhibition T4 40' 5: 8%
  % inhibition T4 90' 5: 6.33%
  % inhibition T4 180' 5: 0.194%
DRC-2, concentration 10
  % inhibition T4 10' 10: 18%
  % inhibition T4 40' 10: 18%
  % inhibition T4 90' 10: 16%
  % inhibition T4 180' 10: 10%
DRC-2, concentration 20
  % inhibition T4 10' 20: 21%
  % inhibition T4 40' 20: 27%
  % inhibition T4 90' 20: 25%
  % inhibition T4 180' 20: 18%
DRC-2, concentration 40
  % inhibition T4 10' 40: 24%
  % inhibition T4 40' 40: 31%
  % inhibition T4 90' 40: 29%
  % inhibition T4 180' 40: 25%
DRC-2, concentration 80
  % inhibition T4 10' 80: 17%
  % inhibition T4 40' 80: 26%
  % inhibition T4 90' 80: 27%
  % inhibition T4 180' 80: 24%

## O=C(c1ccccc1)N1CCc2c(nc3cc(-c4ccccc4)[nH]n3c2=O)C1 [Molecule 30, O=C(N1CCc2c(C1)nc1n(c2=O)[nH]c(c1)c1ccccc1)c1ccccc1]
DRC-1, concentration 2.5
  % inhibition T4 10' 2.5: -1.603%
  % inhibition T4 70' 2.5: -4.009%
  % inhibition T4 130' 2.5: -6.3102%
DRC-1, concentration 5
  % inhibition T4 10' 5: -4.492%
  % inhibition T4 70' 5: -7.504%
  % inhibition T4 130' 5: -10.6574%
DRC-1, concentration 10
  % inhibition T4 10' 10: -6.45%
  % inhibition T4 70' 10: -7.7135%
  % inhibition T4 130' 10: -9.449%
DRC-1, concentration 20
  % inhibition T4 10' 20: 0.1503%
  % inhibition T4 70' 20: -3.401%
  % inhibition T4 130' 20: -6.067%
DRC-1, concentration 40
  % inhibition T4 10' 40: 0.9641%
  % inhibition T4 70' 40: -0.06602%
  % inhibition T4 130' 40: -1.0022%
DRC-1, concentration 80
  % inhibition T4 10' 80: -0.6394%
  % inhibition T4 70' 80: -5.584%
  % inhibition T4 130' 80: -9.233%
DRC-2, concentration 2.5
  % inhibition T4 10' 2.5: 1.68%
  % inhibition T4 40' 2.5: 1.68%
  % inhibition T4 90' 2.5: 1%
  % inhibition T4 180' 2.5: -2.79%
DRC-2, concentration 5
  % inhibition T4 10' 5: -13%
  % inhibition T4 40' 5: -13%
  % inhibition T4 90' 5: -13%
  % inhibition T4 180' 5: -16%
DRC-2, concentration 10
  % inhibition T4 10' 10: -11%
  % inhibition T4 40' 10: -11%
  % inhibition T4 90' 10: -10%
  % inhibition T4 180' 10: -13%
DRC-2, concentration 20
  % inhibition T4 10' 20: -20%
  % inhibition T4 40' 20: -20%
  % inhibition T4 90' 20: -17%
  % inhibition T4 180' 20: -19%
DRC-2, concentration 40
  % inhibition T4 10' 40: -17%
  % inhibition T4 40' 40: -17%
  % inhibition T4 90' 40: -15%
  % inhibition T4 180' 40: -15%
DRC-2, concentration 80
  % inhibition T4 10' 80: -22%
  % inhibition T4 40' 80: -22%
  % inhibition T4 90' 80: -21%
  % inhibition T4 180' 80: -21%
